This note sets out measurements from patent EP0390718A1, “Process for preparing new 1-diphenylmethylpiperidine derivatives” (FABRICA ESPANOLA DE PRODUCTOS QUIMICOS Y FARMACEUTICOS, …, priority 1989, dated 1990).

The target of data set [1] is guinea pig isolated ileum contractions caused by histamine (Cavia porcellus, UniProt P31389). Kind of data set: guinea pig isolated ileum contractions caused by histamine (in vitro antihistaminic activity). Type of data set: cell-based. The settings on record: drug concentration inhibiting 50% of the response to histamine; 10 minutes of incubation with each concentration; Tyrode solution at 37°C; unit M only printed in method b12 (10⁻⁸-10⁻⁵ M); read-out: CI50 (the source's name).
Sequence of guinea pig isolated ileum contractions caused by histamine (P31389 whole entry): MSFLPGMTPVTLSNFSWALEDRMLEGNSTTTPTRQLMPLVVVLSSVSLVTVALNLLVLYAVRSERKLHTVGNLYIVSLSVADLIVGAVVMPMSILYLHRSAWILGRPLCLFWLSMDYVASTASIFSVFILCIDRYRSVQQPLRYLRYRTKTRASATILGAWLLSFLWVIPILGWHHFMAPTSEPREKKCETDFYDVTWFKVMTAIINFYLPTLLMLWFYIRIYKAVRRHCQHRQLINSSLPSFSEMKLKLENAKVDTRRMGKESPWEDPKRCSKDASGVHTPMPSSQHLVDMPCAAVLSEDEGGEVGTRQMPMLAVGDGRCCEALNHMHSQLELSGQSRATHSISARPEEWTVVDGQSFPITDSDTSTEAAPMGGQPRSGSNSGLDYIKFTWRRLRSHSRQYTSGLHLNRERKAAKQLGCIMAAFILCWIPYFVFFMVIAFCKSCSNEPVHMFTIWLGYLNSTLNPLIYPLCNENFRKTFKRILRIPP

Another data set concerns Swiss male mice. Kind of data set: preliminary study of the main pharmacologic effects, observation of symptoms and reflexes in mice. Type of data set: in vivo. Conditions: 300 mg/kg. Here is the method: A preliminary study has been made of the main pharmacologic effects using Swiss male mice distributed in groups of four animals; each group was administered one of the products in doses of 300 mg/kg and the animals began to be observed, logging the time when symptoms appeared or given reflexes decreased: spontaneous activity, appearance of stereotype, trembling, convulsions, abnormal body position, loss of reflexes, extent of palpebral aperture, salivation, pyloerection, hypothermia, lachrymation or change in skin colour; observation lasted for 30 minutes and was repeated 1, 2, 3, 4 and 24 hours after treatment; the reference compound chosen was a well-known antiallergic, ketotyphene.

Where [2] appears, read: Swiss male mice, groups of four, observed 30 minutes and 1, 2, 3, 4 and 24 hours after treatment.

Turning to “N-[(1-diphenylmethyl)piperidine-4-yl]-1-[(4-fluorophenyl)methyl]-2-amino-1 H-benzimidazol [Example 5]”, the IC50 in data set [1] is 0.056 µM. Besides, the “Maximum effect observed/No. of animals Decreased spontaneous activity” value in the data set on Swiss male mice (setting [2]) turned out to be 0.
Taken in the same sequence, the figures for “1-[(4-chlorophenyl)methyl]-N-[1-(diphenylmethyl)piperidine-4-yl]-2-amino-1 H-benzimidazol [Example 4]” were 0.063 µM and 0.
Consider `CN1CCC(=C2c3ccccc3CC(=O)c3sccc32)CC1` [Ketotiphene], for which, in the data set with Swiss male mice (setting [2]), the “Maximum effect observed/No. of animals Body reflex loss” value is on record as 1/4 and the “Maximum effect observed/No. of animals Decreased spontaneous activity” value is recorded as 2/4. In the data set with Swiss male mice (mouse, in vivo), the “Maximum effect observed/No. of animals Hearing reflex loss” value is “-”, the “Maximum effect observed/No. of animals Hypothermia” value was 4/4 and the “Maximum effect observed/No. of animals Palpebral potosis” value is on record as 1/4.
